{"source": "patent US20230018423A1", "about": "“BENZIMIDAZOLE DERIVATIVES FOR TREATMENT AND/OR PREVENTION OF DISEASES AND DISORDERS MEDIATED BY NLRP3” (YODA PHARMACEUTICALS INC., priority 2021, published 2023)", "key": {"[1]": {"biological_target": "T1, NLRP3 inflammasome (Homo sapiens, UniProt Q96P20)", "T1 sequence (Q96P20 whole entry)": "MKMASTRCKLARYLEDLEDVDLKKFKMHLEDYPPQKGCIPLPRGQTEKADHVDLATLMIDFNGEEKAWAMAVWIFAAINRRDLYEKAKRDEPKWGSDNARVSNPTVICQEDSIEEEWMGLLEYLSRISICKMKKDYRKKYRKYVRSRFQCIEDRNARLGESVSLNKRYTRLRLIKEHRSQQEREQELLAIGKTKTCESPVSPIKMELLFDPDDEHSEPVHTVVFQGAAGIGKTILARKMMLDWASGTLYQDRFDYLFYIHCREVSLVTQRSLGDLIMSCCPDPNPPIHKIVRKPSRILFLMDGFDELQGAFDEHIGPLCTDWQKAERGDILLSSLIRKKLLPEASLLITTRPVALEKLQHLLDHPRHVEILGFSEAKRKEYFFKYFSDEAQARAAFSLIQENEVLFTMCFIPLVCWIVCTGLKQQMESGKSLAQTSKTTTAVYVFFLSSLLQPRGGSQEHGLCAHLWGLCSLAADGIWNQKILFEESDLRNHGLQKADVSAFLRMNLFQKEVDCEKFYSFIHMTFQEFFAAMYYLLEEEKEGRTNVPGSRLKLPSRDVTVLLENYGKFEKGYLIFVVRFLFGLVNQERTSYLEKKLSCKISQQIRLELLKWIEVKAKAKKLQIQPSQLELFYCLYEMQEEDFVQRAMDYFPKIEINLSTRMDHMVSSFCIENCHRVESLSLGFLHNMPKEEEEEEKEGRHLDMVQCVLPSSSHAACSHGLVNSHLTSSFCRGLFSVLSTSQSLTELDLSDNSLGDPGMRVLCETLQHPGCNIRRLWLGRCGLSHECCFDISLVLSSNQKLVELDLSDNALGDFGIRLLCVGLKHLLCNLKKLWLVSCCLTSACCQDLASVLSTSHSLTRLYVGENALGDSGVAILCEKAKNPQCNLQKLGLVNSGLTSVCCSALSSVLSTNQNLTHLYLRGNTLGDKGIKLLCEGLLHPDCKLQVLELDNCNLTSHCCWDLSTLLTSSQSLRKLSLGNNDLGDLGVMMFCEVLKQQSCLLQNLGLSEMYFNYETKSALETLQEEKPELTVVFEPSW", "experiment": "NLRP3 inflammasome assay, IL-1β ELISA in LPS- and ATP-treated THP-1 cells", "settings": "50 ng/mL LPS + 5 mM ATP, compared to the LPS+ATP group, MCC950 1 uM, RS-D7 0.1-5 uM, others 0.2-5 uM, FIG. 2A", "protocol": "(§3) The assays were conducted using Human promonocytic leukemia THP-1 cells.\n(§4) Human promonocytic leukemia THP-1 cells were cultured in RPMI and treated with Phorbol 12-myristate 13-acetate (PMA). […] The supernatant of PMA-differentiated THP-1 cells was collected at given time points after stimulation, and IL-1β level in cell culture supernatant was determined using IL-1 beta Human Uncoated ELISA Kit (Invitrogen). Supernatants and cell lysate were also evaluated by immunoblotting methods. The immunoreactive signals were developed using Immobilon Crescendo Western HRP substrate and the digitized image of the membrane was detected by ImageQuant LAS 4000mini (GE) according to the manufacturer's instructions."}, "[2]": {"biological_target": "T1, NLRP3 inflammasome", "experiment": "NLRP3 inflammasome assay, IL-1β ELISA in LPS- and MSU-treated THP-1 cells", "settings": "50 ng/mL LPS + 400 ug/ml MSU, compared to the LPS+MSU group, RS-D7 0.1-5 uM, others 0.2-5 uM, FIG. 2B", "protocol": "as §3, §4"}, "[3]": {"test_system": "TgM83 mice", "experiment": "Open field task (locomotion activity) in TgM83 mouse model", "format": "in vivo"}, "[4]": {"test_system": "TNF-α", "experiment": "Inflammation cytokine ELISA in the cerebellum of TgM83 mice: TNF-α", "format": "in vivo, mouse", "settings": "30 mg/kg oral gavage, sacrificed after 20 minutes, P<0.05, FIG. 5C", "from_the_text": "(§1) To characterize the inflammatory response after RS-D7 treatment, the level of inflammation cytokines, including interleukin-1 beta (IL-1β), interleukin-6 (IL-6), and Tumor Necrosis Factor-α (TNF-α), were examined in the cerebellum of male TgM83 and WT littermate mice (n=5 each) using enzyme-linked immunosorbent assay (ELISA). All the animals were sacrificed after 20-minutes RS-D7 treatment and the tissue samples were taken from […] of the mouse brain from male WT littermates, TgM83 mice and TgM83 mice with RS-D7 treatment (30 mg/kg, P.O.). These samples were dissected on ice and then stored at −80° C. before use. The ELISA experiment was performed using commercial kits for IL-1β (88-7013, Invitrogen, USA), IL-6 (88-7064, Invitrogen, USA) and TNF-α (88-7324, Invitrogen, USA). Procedures were followed according to manufactures protocols. Standards and samples were run in triplicates. OD values were read at 450 nm using a microplate reader (ThermoFisher Scientific, USA). Calculation of concentrations were done according to manufactures protocol using standard curve methods.\n(§2) All of the data are presented as the mean+SE of the mean (SEM). The data was analyzed with one-way ANOVA in behavioral results. A post-hoc analysis was performed with Fisher's LSD test when F values reaching significant difference. […]"}, "[5]": {"test_system": "IL-1β", "experiment": "Inflammation cytokine ELISA in the cerebellum of TgM83 mice: IL-1β", "format": "in vivo, mouse", "settings": "30 mg/kg oral gavage, sacrificed after 20 minutes, P<0.05, FIG. 5A", "from_the_text": "as §1, §2"}, "[6]": {"biological_target": "T1, NLRP3 inflammasome", "experiment": "NLRP3 inflammasome assay, western blot (immunoblotting) of LPS+MSU-treated PMA-primed THP-1 cells", "settings": "MCC950 1 uM, RS-D7 0.1, 1 and 5 uM, FIG. 1", "protocol": "as §3, §4"}, "[7]": {"test_system": "IL-6", "experiment": "Inflammation cytokine ELISA in the cerebellum of TgM83 mice: IL-6", "format": "in vivo, mouse", "settings": "30 mg/kg oral gavage, sacrificed after 20 minutes, P<0.05, FIG. 5B", "from_the_text": "as §1, §2"}, "[8]": {"test_system": "TgM83 mice", "experiment": "Rotarod task (motor coordination) in TgM83 mouse model", "format": "in vivo"}}, "data": [{"compound": "COc1c(C)cnc(CSc2nc3cc(C(=O)O)ccc3n2CCC2=CCCCC2)c1C", "note": "[compound 12083, 1-(2-(cyclohex-1-en-1-yl)ethyl)-2-(((4-methoxy-3,5-dimethylpyridin-2-yl)methyl)thio)-1H-benzo[d]imidazole-5-carboxylic acid]", "values": [{"measurement": "IL-1β level in cell culture supernatant (ELISA)", "setting": "[1]", "value": "significantly lower levels"}, {"measurement": "IL-1β level in cell culture supernatant (ELISA)", "setting": "[2]", "value": "significantly lower levels"}]}, {"compound": "COc1c(C)cnc(CSc2nc3cc(OC(=O)CNC(=O)OC(C)(C)C)ccc3[nH]2)c1C", "note": "[compound 12093, 2-(((4-methoxy-3,5-dimethylpyridin-2-yl)methyl)thio)-1H-benzo[d]imidazol-5-yl (tert-butoxycarbonyl)glycinate]", "values": [{"measurement": "IL-1β level in cell culture supernatant (ELISA)", "setting": "[1]", "value": "significantly lower levels"}, {"measurement": "IL-1β level in cell culture supernatant (ELISA)", "setting": "[2]", "value": "significantly lower levels"}]}, {"compound": "COc1c(C)cnc(C[S+]([O-])c2nc3ccc(O)cc3[nH]2)c1C", "note": "(stereo not drawn) [RS-D7, 5-O-Desmethyl-Omeprazole]", "values": [{"measurement": "increase of distance moved versus TgM83 vehicle mice (rescue of hypolocomotion)", "setting": "[3]; 30 mg/kg oral gavage, one hour, P<0.05", "value": "5,007 cm"}, {"measurement": "total distance moved in the open field test", "setting": "[3]; 12-month-old, single dose 30 mg/kg PO, 1-hour period, mean±sem, TgM83 vehicle 15,472±942, WT 21,552±1,269", "value": "20,479±730 cm"}, {"measurement": "TNF-α level in the cerebellum (ELISA)", "setting": "[4]", "value": "significantly inhibit the overexpression"}, {"measurement": "IL-1β level in cell culture supernatant (ELISA)", "setting": "[1]", "value": "significantly lower levels"}, {"measurement": "IL-1β level in the cerebellum (ELISA)", "setting": "[5]", "value": "significantly inhibit the overexpression"}, {"measurement": "expression of IL-1β (western blot)", "setting": "[6]", "value": "dose-dependent inhibition"}, {"measurement": "expression of caspase-1 (western blot)", "setting": "[6]", "value": "dose-dependent inhibition"}, {"measurement": "IL-6 level in the cerebellum (ELISA)", "setting": "[7]", "value": "significantly inhibit the overexpression"}, {"measurement": "prolonging of the falling latency versus TgM83 vehicle mice", "setting": "[8]; 30 mg/kg oral gavage, P<0.05", "value": 76.8, "unit": "s"}, {"measurement": "falling latency on the rotarod", "setting": "[8]; single dose 30 mg/kg PO, accelerating 4-40 rpm, mean±sem, TgM83 vehicle 55.3±10.4, WT 99.5±7.5", "value": "132.1 ± 16.1", "unit": "s"}, {"measurement": "IL-1β level in cell culture supernatant (ELISA)", "setting": "[2]", "value": "significantly lower levels"}]}]}
